We go through 26 compounds from ChEMBL document CHEMBL2311471, “Synthesis of (E)-8-(3-chlorostyryl)caffeine analogues leading to 9-deazaxanthine derivatives as dual A(2A) antagonists/MAO-B inhibitors” (J Med Chem, 2013).

The target of assay [1] is T1, Amine oxidase [flavin-containing] B (Homo sapiens, UniProt P27338).
T1 sequence (P27338 whole entry): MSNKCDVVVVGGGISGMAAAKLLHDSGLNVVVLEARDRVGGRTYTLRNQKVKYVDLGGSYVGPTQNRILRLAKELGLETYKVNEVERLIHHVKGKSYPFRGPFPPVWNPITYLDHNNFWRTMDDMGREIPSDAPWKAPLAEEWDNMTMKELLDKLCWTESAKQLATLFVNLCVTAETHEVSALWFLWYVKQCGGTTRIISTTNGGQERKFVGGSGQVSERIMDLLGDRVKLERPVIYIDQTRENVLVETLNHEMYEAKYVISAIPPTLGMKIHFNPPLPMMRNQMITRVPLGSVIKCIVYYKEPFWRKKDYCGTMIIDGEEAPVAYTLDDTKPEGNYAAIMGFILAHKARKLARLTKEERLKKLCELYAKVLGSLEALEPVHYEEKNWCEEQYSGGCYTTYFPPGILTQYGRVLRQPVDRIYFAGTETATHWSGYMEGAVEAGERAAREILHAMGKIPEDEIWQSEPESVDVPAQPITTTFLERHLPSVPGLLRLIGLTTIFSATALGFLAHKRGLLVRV
The assay can be described thus: Inhibition of human MAOB after 1 hr by luminescence assay.

For another assay, the target named is Adenosine receptor A2a (Homo sapiens, UniProt P29274). The assay can be described thus: Displacement of [3H]ZM241385 from human adenosine A2A receptor expressed in HEK293 cells after 1 hr by microbeta scintillation counting analysis. The class given is cell-based. On the technique in general: In a radioligand displacement assay an active substance lowers the binding of a labelled ligand.
Adenosine receptor A2a, sequence (P29274 whole entry): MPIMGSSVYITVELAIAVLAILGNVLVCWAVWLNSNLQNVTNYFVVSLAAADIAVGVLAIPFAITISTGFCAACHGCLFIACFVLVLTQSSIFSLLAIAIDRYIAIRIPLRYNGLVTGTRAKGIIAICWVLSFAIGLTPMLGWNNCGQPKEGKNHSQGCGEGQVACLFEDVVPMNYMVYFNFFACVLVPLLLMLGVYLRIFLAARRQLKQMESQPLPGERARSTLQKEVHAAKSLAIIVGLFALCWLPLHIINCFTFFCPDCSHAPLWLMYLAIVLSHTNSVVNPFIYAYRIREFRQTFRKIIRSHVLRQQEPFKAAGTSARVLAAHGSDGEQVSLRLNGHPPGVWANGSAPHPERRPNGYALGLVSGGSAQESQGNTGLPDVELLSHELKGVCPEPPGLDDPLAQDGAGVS

With `Cn1c(=O)c2c(cc(/C=C/c3ccc4c(c3)OCO4)n2C)n(C)c1=O`, the IC50 in assay [1] was over 1 µM. The Ki on Adenosine receptor A2a came out at 0.467 µM.

`CCn1c(=O)c2c(nc(/C=C/c3ccc(OC)c(OC)c3)n2C)n(CC)c1=O` [ISTRADEFYLLINE] displayed an IC50 in assay [1] of over 10 µM.

Compound `Cn1c(=O)c2c(cc(Oc3cccc(Cl)c3)n2C)n(C)c1=O` gave an IC50 in assay [1] of over 10 µM. The compound further displayed a Ki at Adenosine receptor A2a of over 10 µM.

Turning to `CCn1c(/C=C/c2ccc(Cl)cc2)cc2c1c(=O)n(C)c(=O)n2C`, the IC50 in assay [1] is over 1 µM. Also, at Adenosine receptor A2a, the Ki is over 10 µM.

As to `CCn1c(=O)c2c(cc(/C=C/c3ccc(Cl)cc3)n2C)n(CC)c1=O`, the IC50 in assay [1] was over 1 µM. This compound displayed a Ki on Adenosine receptor A2a of over 10 µM.

In the case of `CCn1c(=O)c2c(cc(C#Cc3ccc(Cl)cc3)n2C)n(CC)c1=O`, the IC50 in assay [1] is over 1 µM. For the same compound, on Adenosine receptor A2a, the Ki is over 10 µM.

In turn, `Cn1c(=O)c2c(cc(/C=C/c3ccc(Cl)c(Cl)c3)n2C)n(C)c1=O` displayed an IC50 in assay [1] of 0.133 µM. The compound also displayed a Ki at Adenosine receptor A2a of over 10 µM.

For `Cn1c(=O)c2c(cc(/C=C/c3cccc(Cl)c3)n2C)n(C)c1=O`, in assay [1], inhibition was half-maximal at 1.48 µM (IC50). Further, the Ki at Adenosine receptor A2a stood at 0.43 µM.

With `CCn1c(=O)c2c(cc(OCc3ccc(Cl)cc3)n2C)n(CC)c1=O`, the IC50 in assay [1] is over 1 µM. For the same compound, on Adenosine receptor A2a, the Ki was over 10 µM.

`Cn1c(=O)c2c(cc(C#CCc3ccccc3)n2C)n(C)c1=O` came in with an IC50 in assay [1] of over 1 µM. This compound also gave an inhibitory constant (Ki) at Adenosine receptor A2a of over 10 µM.

Turning to `Cn1c(=O)c2c(cc(NC(=O)c3ccc(Cl)cc3)n2C)n(C)c1=O`, the IC50 in assay [1] is over 10 µM. On Adenosine receptor A2a, this compound displayed a Ki of over 10 µM.

`Cn1c(=O)c2c(cc(/C=C/c3ccccc3O)n2C)n(C)c1=O` registered an IC50 in assay [1] of over 1 µM. This compound also registered a Ki at Adenosine receptor A2a of 1.14 µM.

The compound `Cn1c(=O)c2c(cc(/C=C/c3cccc(O)c3)n2C)n(C)c1=O` returned an IC50 in assay [1] of over 1 µM. For the same compound, the Ki at Adenosine receptor A2a was over 1 µM.

In assay [1], `Cn1c(=O)c2c(cc(/C=C/c3ccccc3)n2C)n(C)c1=O` yielded an IC50 of 1.58 µM. The compound further yielded a Ki at Adenosine receptor A2a of 0.17 µM.

Compound `Cn1c(=O)c2c(cc(Oc3cccc(-c4ccccc4)c3)n2C)n(C)c1=O` registered an IC50 in assay [1] of over 10 µM. The same compound returned a Ki at Adenosine receptor A2a of over 10 µM.

For `CN(C(=O)/C=C/c1ccccc1)c1cn(C)c(=O)n(C)c1=O`, the IC50 in assay [1] was over 10 µM. This compound also showed a Ki on Adenosine receptor A2a of over 1 µM.

Take `Cn1c(=O)c2c(cc(/C=C/c3ccc(S(C)(=O)=O)cc3)n2C)n(C)c1=O`: the IC50 in assay [1] was over 1 µM. This compound also displayed a Ki at Adenosine receptor A2a of over 1 µM.

Consider `Cn1ccc2nc(/C=C/c3ccccc3)n(C)c2c1=O`, for which the IC50 in assay [1] is over 10 µM. Also, on Adenosine receptor A2a, the Ki is over 10 µM.

Turning to `Cn1c(/C=C/c2ccccc2)nc2c1ccc(=O)n2C`, the IC50 in assay [1] is over 10 µM. For the same compound, the Ki at Adenosine receptor A2a is over 10 µM.

With `CC(=O)c1cccc(/C=C/c2cc3c(c(=O)n(C)c(=O)n3C)n2C)c1`, the IC50 in assay [1] was over 10 µM. This compound also gave a Ki at Adenosine receptor A2a of over 10 µM.

Take `Cn1c(=O)c2c(cc(-c3nc4ccc(Cl)cc4o3)n2C)n(C)c1=O`: in assay [1], the IC50 is over 1 µM. For the same compound, the Ki at Adenosine receptor A2a was over 1 µM.

`Cn1c(=O)c2c(cc(/C=C/c3cccc(N)n3)n2C)n(C)c1=O` displayed an IC50 in assay [1] of over 10 µM. At Adenosine receptor A2a, this compound came in with a Ki of 0.887 µM.

As to `Cn1c(=O)c2c(cc(/C=C/c3cccc(C#N)c3)n2C)n(C)c1=O`, the IC50 in assay [1] was over 10 µM. The compound further gave a Ki at Adenosine receptor A2a of over 10 µM.

As to `Cn1c(=O)c2c(c3ccc(-c4ccccc4)cc3n2C)n(C)c1=O`, half-maximal inhibition in assay [1] (IC50) was put at 7.63 µM. This compound returned a Ki at Adenosine receptor A2a of over 10 µM.

In assay [1], `Cn1c(=O)c2c(cc(/C=C/c3ccncc3)n2C)n(C)c1=O` showed an IC50 of over 10 µM. This compound also displayed a Ki at Adenosine receptor A2a of over 10 µM.

`Cn1c(=O)c2c(cc(/C=C/c3ccc(O)cc3)n2C)n(C)c1=O` showed an IC50 in assay [1] of over 10 µM. The compound further gave a Ki on Adenosine receptor A2a of over 10 µM.

Broadly, the IC50 is the concentration needed to halve the response being measured. Low readings indicate greater potency, high ones weaker potency. The term Ki denotes the dissociation constant of the complex between target and ligand, obtained from inhibition or displacement. A lower Ki goes with higher affinity.
